Reference: patent US20250354979A1, “DRUG EVALUATION METHOD, REAGENT, AND KIT” (FUJIFILM Corporation, priority 2023, published 2025)

Key:
[1] = test system: human iPS cell-derived myocardial cells; experiment: Heart rate of myocardial cells by MEA, serum-free culture medium with isoproterenol and carbachol added; format: cell-based; settings: serum-free culture medium with 1 μmol/L isoproterenol and 3 μmol/L carbachol; cumulative drug concentrations, 20 minutes after addition; vs medium control
Description: (§1) Example 4: Method and results of evaluating increase in heart rate by muscarinic receptor inhibitor (atropine) using serum-free culture medium to which adrenergic receptor agonist (isoproterenol) and muscarinic receptor agonist (carbachol) are added Human iPS cell-derived myocardial cells (iCell myocardial cells 2.0, manufactured by FUJIFILM Cellular Dynamics, Inc.) in a frozen state were thawed, suspended in a thawing culture medium (iCell myocardial cell thawing culture medium, manufactured by FUJIFILM Cellular Dynamics, Inc.), and then seeded at a cell density of 50,000 cells per well on a MEA plate (Cyto View MEA 48, manufactured by Axion BioSystems, Inc.). The seeding density of myocardial cells in the vicinity of the electrode was 2,725 cells/mm^2. After the plate was allowed to stand in a CO2 incubator for several hours, a maintenance culture medium (iCell myocardial cell maintenance culture medium, manufactured by FUJIFILM Cellular Dynamics, Inc.) containing serum was added, and the myocardial cells were cultured in the CO2 incubator for about one week. The culture medium was exchanged with a serum-free culture medium (a myocardial cell serum-free assay culture medium, manufactured by FUJIFILM Cellular Dynamics, Inc.) on the day before the measurement.
(§2) On the day of measurement, the MEA plate on which human iPS cell-derived myocardial cells were cultured was placed in an MEA system (Maestro Pro, manufactured by Axion BioSystems, Inc.), 1 μmol/L of isoproterenol (manufactured by Tokyo Chemical Industry Co., Ltd.) and 3 μmol/L of carbachol (manufactured by Tokyo Chemical Industry Co., Ltd.) were added to the culture medium, and then the extracellular potential was measured after 20 minutes from the addition (medium control, atropine concentration: 0 μmol/L). Subsequently, 0.01 μmol/L of atropine (manufactured by Tokyo Chemical Industry Co., Ltd.) was added to the MEA plate, and then the extracellular potential was measured after 20 minutes from the addition. Similarly, atropine was added to give concentrations of 0.1 μmol/L and 1 μmol/L, and then the extracellular potential was measured at each concentration.
From the measurement results of the extracellular potential, the interval between sharp peaks indicating depolarization of human iPS cell-derived myocardial cells was taken as the beating time (sec), and the heart rate (/min)=60/beating time (sec) was calculated. The addition of atropine was confirmed to result in an increase in heart rate of up to 51% (FIG. 7).
In the same manner as in Example 4, evaluation was carried out using an MEA plate on which human iPS cell-derived myocardial cells were cultured. Specifically, the same operations as in Example 4 were carried out except that atropine added in Example 4 was changed to tiotropium (manufactured by Tokyo Chemical Industry Co., Ltd.) and the concentration of tiotropium added was 1 pmol/L, 10 pmol/L, 100 pmol/L, and 1,000 pmol/L.
In the same manner as in Example 4, evaluation was carried out using an MEA plate on which human iPS cell-derived myocardial cells were cultured. Specifically, the same operations as in Example 4 were carried out except that atropine added in Example 4 was changed to glycopyrronium (manufactured by Tokyo Chemical Industry Co., Ltd.) and the concentration of glycopyrronium added was 0.01 nmol/L, 0.1 nmol/L, 1 nmol/L, and 10 nmol/L.
In the same manner as in Example 4, evaluation was carried out using an MEA plate on which human iPS cell-derived myocardial cells were cultured. Specifically, the same operations as in Example 4 were carried out except that the atropine added in Example 4 was changed to propranolol (manufactured by FUJIFILM Wako Pure Chemical Corporation) and the concentration of propranolol added was 0.1 nmol/L, 1 nmol/L, 10 nmol/L, and 100 nmol/L.
In the same manner as in Example 4, evaluation was carried out using an MEA plate on which human iPS cell-derived myocardial cells were cultured. […]

[2] = test system: human iPS cell-derived myocardial cells; experiment: Heart rate of myocardial cells by MEA, serum-free culture medium with isoproterenol added; format: cell-based; settings: serum-free culture medium with 1 μmol/L isoproterenol; cumulative drug concentrations, 20 minutes after addition; vs medium control
Description: as §1, with “1:” for “4:”, “decrease” for “increase”, “agonist (carbachol)” for “inhibitor (atropine)”, “is” for “and muscarinic receptor agonist (carbachol) are”, “2,671” for “2,725”, “The culture medium was exchanged with a serum-free culture medium (a myocardial cell serum-free assay culture medium, manufactured by FUJIFILM Cellular Dynamics, Inc.) on the day before the measurement.” left out
as §2, with “Ltd.) was” for “Ltd.) and 3 μmol/L of carbachol (manufactured by Tokyo Chemical Industry Co., Ltd.) were”, “control, carbachol” for “control, atropine”, “of carbachol” for “of atropine”, “Similarly, carbachol” for “Similarly, atropine”, “0.1 μmol/L, 1 μmol/L,” for “0.1 μmol/L”, “and 10” for “and 1”
From the measurement results of the extracellular potential, the interval between sharp peaks indicating depolarization of human iPS cell-derived myocardial cells was taken as the beating time (sec), and the heart rate (/min)=60/ beating time (sec) was calculated. […]

Row | SMILES | increase in heart rate [1] | decrease in heart rate [2]
1 | CN1[C@@H]2CC[C@H]1C[C@@H](OC(=O)C(CO)c1ccccc1)C2 (some centres unmarked) [atropine] | up to 51% | 
2 | C[N+](C)(C)CCOC(N)=O [carbachol] |  | up to 34%
